In ChEMBL document CHEMBL3885881, “DrugMatrix”:

Species on record: Rattus norvegicus
Assay: DrugMatrix - Regimen: Daily Repeat
Assay type: toxicity, organism-based, Sprague-Dawley
Design: regimen Daily Repeat, gender Male, age 6-8 weeks
Settings: in vivo, po, route oral GAVAGE, vehicle .5 % CMC; for BASOPHIL / EOSINOPHIL / ERYTHROCYTE COUNT / HEMATOCRIT / HEMOGLOBIN / LEUKOCYTE COUNT / LYMPHOCYTE / MEAN CORPUSCULAR HEMOGLOBIN / MEAN CORPUSCULAR HEMOGLOBIN CONCENTRATION / MEAN CORPUSCULAR VOLUME / MONOCYTE / NEUTROPHIL / PLATELET COUNT / ABSOLUTE BASOPHIL / ABSOLUTE EOSINOPHIL / ABSOLUTE LYMPHOCYTE / ABSOLUTE MONOCYTE / ABSOLUTE SEGMENTED NEUTROPHIL / NUCLEATED RED BLOOD CELLS: tissue Blood
[1] = 0 mg/kg, 72 h, dose level Control, time 3 day
[2] = 0 mg/kg, 72 h, tissue Plasma, dose level Control, time 3 day
[3] = 0 mg/kg, 120 h, dose level Control, time 5 day
[4] = 0 mg/kg, 120 h, tissue Plasma, dose level Control, time 5 day
[5] = 7 mg/kg, 72 h, dose level Low, time 3 day
[6] = 7 mg/kg, 72 h, tissue Plasma, dose level Low, time 3 day
[7] = 7 mg/kg, 120 h, dose level Low, time 5 day
[8] = 7 mg/kg, 120 h, tissue Plasma, dose level Low, time 5 day

NC1=NC(=O)C(c2ccccc2)O1 (stereo unspecified) [PEMOLINE]
BASOPHIL [1]: 0% | EOSINOPHIL [1]: 0.33% | ERYTHROCYTE COUNT [1]: 6.03 x10E6/uL | HEMATOCRIT [1]: 38.8% | HEMOGLOBIN [1]: 14.26 G/DL | LEUKOCYTE COUNT [1]: 10.64 x10E3/uL | LYMPHOCYTE [1]: 83.33% | MEAN CORPUSCULAR HEMOGLOBIN [1]: 23.64 pg | MEAN CORPUSCULAR HEMOGLOBIN CONCENTRATION [1]: 36.74 G/DL | MEAN CORPUSCULAR VOLUME [1]: 64.32 fL | MONOCYTE [1]: 3.33% | NEUTROPHIL [1]: 13% | PLATELET COUNT [1]: 1264.4 x10E3/uL | ALANINE AMINOTRANSFERASE [2]: 38.83 u/L | ALBUMIN [2]: 3.55 G/DL | ALKALINE PHOSPHATASE [2]: 368.33 u/L | ASPARTATE AMINOTRANSFERASE [2]: 66.17 u/L | BLOOD UREA NITROGEN [2]: 15.67 mg/dL | CHLORIDE [2]: 104.33 MEQ/L | CHOLESTEROL [2]: 76.5 mg/dL | CREATINE PHOSPHOKINASE [2]: 166.83 u/L | CREATININE [2]: 0.52 mg/dL | GLUCOSE [2]: 173.17 mg/dL | PHOSPHORUS [2]: 11.68 mg/dL | POTASSIUM [2]: 6.43 MEQ/L | SODIUM [2]: 149.5 MEQ/L | TOTAL PROTEIN [2]: 5.93 G/DL | BASOPHIL [3]: 0% | EOSINOPHIL [3]: 0% | ERYTHROCYTE COUNT [3]: 5.88 x10E6/uL | HEMATOCRIT [3]: 37.87% | HEMOGLOBIN [3]: 14.48 G/DL | LEUKOCYTE COUNT [3]: 12.43 x10E3/uL | LYMPHOCYTE [3]: 84.17% | MEAN CORPUSCULAR HEMOGLOBIN [3]: 24.65 pg | MEAN CORPUSCULAR HEMOGLOBIN CONCENTRATION [3]: 38.25 G/DL | MEAN CORPUSCULAR VOLUME [3]: 64.47 fL | MONOCYTE [3]: 4.33% | NEUTROPHIL [3]: 11.5% | PLATELET COUNT [3]: 1182.33 x10E3/uL | ALANINE AMINOTRANSFERASE [4]: 38.67 u/L | ALBUMIN [4]: 3.55 G/DL | ALKALINE PHOSPHATASE [4]: 342.5 u/L | ASPARTATE AMINOTRANSFERASE [4]: 63.33 u/L | BLOOD UREA NITROGEN [4]: 15.5 mg/dL | CHLORIDE [4]: 104 MEQ/L | CHOLESTEROL [4]: 75.5 mg/dL | CREATINE PHOSPHOKINASE [4]: 142.5 u/L | CREATININE [4]: 0.62 mg/dL | GLUCOSE [4]: 165.17 mg/dL | PHOSPHORUS [4]: 10.87 mg/dL | POTASSIUM [4]: 6.85 MEQ/L | SODIUM [4]: 150.17 MEQ/L | TOTAL PROTEIN [4]: 5.93 G/DL | ABSOLUTE BASOPHIL [5]: 0 CELLS/uL | ABSOLUTE EOSINOPHIL [5]: 0 CELLS/uL | ABSOLUTE LYMPHOCYTE [5]: 8380 CELLS/uL | ABSOLUTE MONOCYTE [5]: 87.67 CELLS/uL | ABSOLUTE SEGMENTED NEUTROPHIL [5]: 732.33 CELLS/uL | BASOPHIL [5]: 0% | EOSINOPHIL [5]: 0% | ERYTHROCYTE COUNT [5]: 5.42 x10E6/uL | HEMATOCRIT [5]: 34% | HEMOGLOBIN [5]: 13.77 G/DL | LEUKOCYTE COUNT [5]: 9.2 x10E3/uL | LYMPHOCYTE [5]: 91.33% | MEAN CORPUSCULAR HEMOGLOBIN [5]: 25.43 pg | MEAN CORPUSCULAR HEMOGLOBIN CONCENTRATION [5]: 40.5 G/DL | MEAN CORPUSCULAR VOLUME [5]: 62.87 fL | MONOCYTE [5]: 1% | NEUTROPHIL [5]: 7.67% | NUCLEATED RED BLOOD CELLS [5]: 0 /100WBC | PLATELET COUNT [5]: 1245 x10E3/uL | ALANINE AMINOTRANSFERASE [6]: 52 u/L | ALBUMIN [6]: 4.3 G/DL | ALKALINE PHOSPHATASE [6]: 415.33 u/L | ASPARTATE AMINOTRANSFERASE [6]: 90 u/L | BLOOD UREA NITROGEN [6]: 14 mg/dL | CARBON DIOXIDE [6]: 32 mmol/L | CHLORIDE [6]: 99.33 MEQ/L | CHOLESTEROL [6]: 78.67 mg/dL | CREATINE PHOSPHOKINASE [6]: 330.33 u/L | CREATININE [6]: 0.25 mg/dL | GLUCOSE [6]: 141.33 mg/dL | LACTATE DEHYDROGENASE [6]: 168.67 u/L | LIPASE [6]: 10.33 u/L | PHOSPHORUS [6]: 11.6 mg/dL | POTASSIUM [6]: 6.56 MEQ/L | SODIUM [6]: 145.47 MEQ/L | TOTAL BILIRUBIN [6]: 0.2 mg/dL | TOTAL PROTEIN [6]: 6.2 G/DL | URIC ACID [6]: 1.03 mg/dL | ABSOLUTE BASOPHIL [7]: 0 CELLS/uL | ABSOLUTE EOSINOPHIL [7]: 0 CELLS/uL | ABSOLUTE LYMPHOCYTE [7]: 13324.33 CELLS/uL | ABSOLUTE MONOCYTE [7]: 202.67 CELLS/uL | ABSOLUTE SEGMENTED NEUTROPHIL [7]: 1839.67 CELLS/uL | BASOPHIL [7]: 0% | EOSINOPHIL [7]: 0% | ERYTHROCYTE COUNT [7]: 5.15 x10E6/uL | HEMATOCRIT [7]: 31.77% | HEMOGLOBIN [7]: 12.83 G/DL | LEUKOCYTE COUNT [7]: 15.37 x10E3/uL | LYMPHOCYTE [7]: 86.67% | MEAN CORPUSCULAR HEMOGLOBIN [7]: 24.93 pg | MEAN CORPUSCULAR HEMOGLOBIN CONCENTRATION [7]: 40.47 G/DL | MEAN CORPUSCULAR VOLUME [7]: 61.63 fL | MONOCYTE [7]: 1.33% | NEUTROPHIL [7]: 12% | NUCLEATED RED BLOOD CELLS [7]: 0 /100WBC | PLATELET COUNT [7]: 1293.33 x10E3/uL | ALANINE AMINOTRANSFERASE [8]: 55.67 u/L | ALBUMIN [8]: 4.1 G/DL | ALKALINE PHOSPHATASE [8]: 349 u/L | ASPARTATE AMINOTRANSFERASE [8]: 73.67 u/L | BLOOD UREA NITROGEN [8]: 18.33 mg/dL
